Test results as given in patent US8551921B2, “Method for determining the toxicity of an environmental or chemical sample” (priority 2000, dated 2013).
Values joined by “and” are separate entries in the source; they are usually repeats but may differ in a detail not shown here. Identical values can stand only once. Counter-ions that a name gives are not always drawn.

Assays:
[1] = system: Staphylococcus epidermidis (Karin12); assay: MARA indicator device toxic fingerprint, microorganism no. 11; conditions: Microbial Toxic Concentration; incubation time 16 h
Procedure: (§1) • dispense 150 μl of growth medium with indicator in each well • add a concentration gradient of the chemical to be tested to rows B-H in a MARA plate (i.e. an indicator device according to the present invention) • incubate for 16 h • read absorbance values; and • analyse with software.
(§2) Microbial responses to different chemicals was estimated by kinetic measurements of their growth using the Labsystem automated IEMS reader. A computer software that could monitor incubation temperatures, reading intervals, and automatically transfer OD data to a computer was developed. A growth medium containing 0.05% peptone, 0.011% bromothymol blue (BTB), 1% sodium chloride and 0.3% glucose was added to all wells. The glucose acts as a carbon source, and during growth the microorganism will break down the glucose and produce acids, that will turn the initially blue indicator to yellow. Each microplate contains 12 columns and 8 rows, and thus in each plate, 11 lyophilized microbial strains were used (one for each column, the 12th column was used as negative control). […] In order to avoid drying out of the plates during the incubation, one drop of sterile mineral oil was added to each well. The plate was then incubated in the IEMS spectrophotometer and the absorbance value from each well was measured every second hour during 48 h.
(§3) The overall toxicity of the chemical compound can be described either as the mean of all 11 MTC values (shown in column 12), or as the minimum value for all 11 microbial strains used in the assay (marked with bold in the table).

E. coli MZ 480 = assay: MARA indicator device toxic fingerprint, microorganism no. 8; conditions: Microbial Toxic Concentration; incubation time 16 h
Procedure: as §1, §2, §3

[2] = system: Aeromonas hydriphila HG3 (RV 5.1); conditions: Microbial Toxic Concentration; incubation time 16 h
Procedure: as §1, §2, §3

[3] = system: JG4 (strain of marine origin); conditions: Microbial Toxic Concentration; incubation time 16 h
Procedure: as §1, §2, §3

[4] = system: Saccaromyces ceriviciae (bakers yeast); conditions: Microbial Toxic Concentration; incubation time 16 h
Procedure: as §1, §2, §3

[5] = system: JG1 (strain of marine origin); conditions: Microbial Toxic Concentration; incubation time 16 h
Procedure: as §1, §2, §3

ObanF = conditions: Microbial Toxic Concentration; incubation time 16 h
Procedure: as §1, §2, §3

[6] = system: JG2 (strain of marine origin); conditions: Microbial Toxic Concentration; incubation time 16 h
Procedure: as §1, §2, §3

[7] = system: JG3 (strain of marine origin); assay: MARA indicator device toxic fingerprint, microorganism no. 3; conditions: Microbial Toxic Concentration; incubation time 16 h
Procedure: as §1, §2, §3

[8] = system: 11 different microbial strains; conditions: for Inhibitory concentrations by method: MARA MTCmin: MTC value of the strain showing the highest sensitivity; for Inhibitory concentrations by method: MARA MTCmean: mean MTC for the 11 microbial strains; for Toxic fingerprint: MTC value, Mean: mean of all 11 MTC values
Procedure: as §1, §2, §3
Concentrations are given in mg/ml.

[9] = system: β-proteobacterium A22 (Kalmar 200); assay: MARA indicator device toxic fingerprint, microorganism no. 5; conditions: Microbial Toxic Concentration; incubation time 16 h
Procedure: as §1, §2, §3

E. coli = conditions: IC50-values, established assay; cited from earlier work
Daphnia = conditions: IC50-values, established assay; cited from earlier work
[10] = system: Photobacterium phosphoreum; conditions: IC50-values, established assay; cited from earlier work
microorganism no. 7 = assay: MARA indicator device toxic fingerprint, microorganism no. 7; conditions: Microbial Toxic Concentration; incubation time 16 h
Procedure: as §1, §2, §3

| Compound | Toxic fingerprint: MTC value for microorganism no. 11 [1] | Toxic fingerprint: MTC value for microorganism no. 8 (E. coli MZ 480) | Toxic fingerprint: MTC value for microorganism no. 6 [2] | Toxic fingerprint: MTC value for microorganism no. 4 [3] | Toxic fingerprint: MTC value for microorganism no. 10 [4] | Toxic fingerprint: MTC value for microorganism no. 1 [5] | Toxic fingerprint: MTC value for microorganism no. 9 (ObanF) | Toxic fingerprint: MTC value for microorganism no. 2 [6] | Toxic fingerprint: MTC value for microorganism no. 3 [7] | Inhibitory concentrations by method: MARA MTCmin [8] [mg/mL] | Inhibitory concentrations by method: MARA MTCmean [8] [mg/mL] | Toxic fingerprint: MTC value, Mean [8] | Toxic fingerprint: MTC value for microorganism no. 5 [9] | Inhibitory concentrations by method: E. coli (E. coli) [mg/mL] | Inhibitory concentrations by method: Daphnia (Daphnia) [mg/mL] | Inhibitory concentrations by method: Microtox [10] [mg/mL] | Toxic fingerprint: MTC value for microorganism no. 7 (microorganism no. 7) |
| --- | --- | --- | --- | --- | --- | --- | --- | --- | --- | --- | --- | --- | --- | --- | --- | --- | --- |
| O=S(=O)([O-])[O-].[Li+].[Li+] [Lithium Sulphate] | 22.400 and 15.300 | 41.800 and 25.400 | 10.600 and 8.490 | 4.590 and 7.950 | 2.650 and 3.570 | 3.700 and 4.780 | 23.400 and 17.500 | 6.300 and 7.170 | 12.200 and 12.700 | 3.11 | 11.330 | 9.960 and 12.700 | 14.500 and 10.000 | 67.764 | 0.033 | 25.763 | – |
| Oc1c(Cl)c(Cl)c(Cl)c(Cl)c1Cl [Penta Chloro Phenol] | 0.001 | 0.005 and 0.006 | 0.003 and 0.006 | 0.009 and 0.010 | – | 0.006 and 0.004 | 0.004 and 0.003 | 0.001 | – | 0.001 | 0.005 | 0.004 and 0.005 | 0.007 and 0.004 | 0.010 | 0.001 | 0.001 | 0.005 and 0.007 |
| COc1ccc(CCN(C)CCCC(C#N)(c2ccc(OC)c(OC)c2)C(C)C)cc1OC (stereo not drawn) [Verapamil HCl] | 0.371 | 0.360 | 1.090 | 3.100 | 0.877 | 0.326 | 0.510 | 0.247 | 0.128 | 0.360 | 0.811 | 0.811 | 0.591 | 0.834 | 0.055 | 0.438 | 2.950 |
| Kinidin sulphate | 0.088 and 0.085 | – | 0.099 and 0.141 | 0.243 and 0.233 | 0.091 and 0.072 | 0.108 and 0.102 | 0.254 and 0.329 | 0.053 and 0.076 | 0.113 and 0.104 | 0.087 | 0.148 | 0.150 and 0.145 | – | 1.009 | 0.062 | 0.092 | 0.138 and 0.275 |
